Experimental data published in US6737383B1, “Herbicidal oxadiazolidines” (priority 1999, dated 2004).

Key:
[1] = tested on: blackgrass; experiment: Test B pre/postemergence blackgrass; assay type: in vivo, Alopecurus myosuroides
Outline: (§1)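 Test chemicals in a non-phytotoxic solvent mixture with surfactant were sprayed preemergence onto planted seeds and postemergence onto plants 2 to 18 cm tall (1- to 4-leaf stage). After twelve to sixteen days in a greenhouse, injury was visually rated against untreated controls from 0 (no effect) to 10 (complete control).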

[2] = tested on: bedstraw; experiment: Test B pre/postemergence bedstraw; assay type: in vivo, Galium aparine
Outline: as §1

[3] = tested on: duck salad; experiment: Test B flood test duck salad; assay type: in vivo, Heteranthera limosa
Outline: (§2)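 Plants were grown to the 2-leaf stage before treatment with test chemical, then held in a greenhouse for twelve to sixteen days. Injury was visually rated against untreated controls on a 0–10 scale, where 0 is no effect and 10 is complete control.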

[4] = tested on: purple nutsedge; experiment: Test B pre/postemergence purple nutsedge; assay type: in vivo, Cyperus rotundus
Outline: as §1

[5] = tested on: bamyardgrass; experiment: Test B flood test barnyardgrass; assay type: in vivo, Echinochloa crus-galli
Outline: as §2

[6] = tested on: pigweed; experiment: Test B pre/postemergence pigweed; assay type: in vivo, Amaranthus retroflexus
Outline: as §1

[7] = tested on: soybean; experiment: Test B pre/postemergence soybean; assay type: in vivo, Glycine max
Outline: as §1

[8] = tested on: surinam grass; experiment: Test B pre/postemergence surinam grass; assay type: in vivo, Brachiaria decumbens
Outline: as §1

[9] = tested on: velvetleaf; experiment: Test B pre/postemergence velvetleaf; assay type: in vivo, Abutilon theophrasti
Outline: as §1

[10] = tested on: corn; experiment: Test B pre/postemergence corn; assay type: in vivo, Zea mays
Outline: as §1

[11] = tested on: rice; experiment: Test B flood test rice; assay type: in vivo, Oryza sativa
Outline: as §2

[12] = tested on: morningglory; experiment: Test B pre/postemergence morningglory; assay type: in vivo, Ipomoea hederacea
Outline: as §1

[13] = tested on: sugar beet; experiment: Test B pre/postemergence sugar beet; assay type: in vivo, Beta vulgaris
Outline: as §1

[14] = tested on: giant foxtail; experiment: Test B pre/postemergence giant foxtail; assay type: in vivo, Setaria faberii
Outline: as §1

[15] = tested on: smallflower flatsedge; experiment: Test B flood test smallflower flatsedge; assay type: in vivo, Cyperus difformis
Outline: as §2

[16] = tested on: rape; experiment: Test B pre/postemergence rape; assay type: in vivo, Brassica napus
Outline: as §1

[17] = Preemergence, Rate 62 g/ha, scale of 0 to 10 where 0 is no effect and 10 is complete control
[18] = Preemergence, Rate 250 g/ha, scale of 0 to 10 where 0 is no effect and 10 is complete control
[19] = Preemergence, Rate 500 g/ha, scale of 0 to 10 where 0 is no effect and 10 is complete control
[20] = Rate 62 g/ha, Postemergence, scale of 0 to 10 where 0 is no effect and 10 is complete control
[21] = Rate 125 g/ha, Postemergence, scale 0 to 10
[22] = Rate 125 g/ha, Preemergence, scale of 0 to 10 where 0 is no effect and 10 is complete control
[23] = Rate 500 g/ha, Postemergence, scale 0 to 10, 0 no effect, 10 complete control
[24] = Rate 62 g/ha, headed Pre-emergence (flood test species), scale 0 to 10 (0 no effect, 10 complete control)
[25] = Rate 125 g/ha, Pre-emergence, flood test species, scale 0 to 10 where 0 is no effect and 10 is complete control
[26] = Rate 250 g/ha, Pre-emergence, flood-test species, scale 0 to 10, 0 is no effect, 10 is complete control
[27] = Rate 500 g/ha, Pre-emergence, flood test species, scale 0 to 10 (0 no effect, 10 complete control)

## CCC(C)N(C(=O)n1oc(=O)n(-c2ccccc2C)c1=O)c1ccc(F)cc1 (stereo not shown) [Compound 239]
[1]; [17]
  Blackgrass plant response rating: 0
[1]; [18]
  Blackgrass plant response rating: 4
[1]; [19]
  Plant response rating, Blackgrass: 4
[1]; [20]
  Blackgrass plant response rating: 0
[1]; [21]
  Blackgrass plant response rating: 0
[1]; [22]
  Blackgrass plant response rating: 3
[1]; Rate 250 g/ha, Postemergence
  Plant response rating (0 to 10; 0 is no effect, 10 is complete control), Blackgrass: 2
[1]; [23]
  Blackgrass plant response rating: 3
[2]; [17]
  Bedstraw plant response rating: 0
[2]; [18]
  Bedstraw plant response rating: 0
[2]; [19]
  Plant response rating, Bedstraw: 0
[2]; [20]
  Bedstraw plant response rating: 0
[2]; [21]
  Bedstraw plant response rating: 3
[2]; [22]
  Bedstraw plant response rating: 0
[2]; Rate 250 g/ha, Postemergence
  Plant response rating (0 to 10; 0 is no effect, 10 is complete control), Bedstraw: 3
[2]; [23]
  Bedstraw plant response rating: 3
[3]; [24]
  Ducksalad plant response rating: 0
[3]; [25]
  Ducksalad plant response rating: 0
[3]; [26]
  Ducksalad plant response rating: 0
[3]; [27]
  Ducksalad plant response rating: 0
[4]; [17]
  Nutsedge plant response rating: 0
[4]; [19]
  Plant response rating, Nutsedge: 0
[4]; [20]
  Nutsedge plant response rating: 0
[4]; [22]
  Nutsedge plant response rating: 0
[4]; Rate 250 g/ha, Postemergence
  Plant response rating (0 to 10; 0 is no effect, 10 is complete control), Nutsedge: 0
[4]; [23]
  Nutsedge plant response rating: 0
[5]; [24]
  Barnyardgrass plant response rating: 0
[5]; [25]
  Barnyardgrass plant response rating: 0
[5]; [26]
  Barnyardgrass plant response rating: 0
[5]; [27]
  Barnyardgrass plant response rating: 0
[6]; [17]
  Redroot pigweed plant response rating: 0
[6]; [18]
  Redroot pigweed plant response rating: 0
[6]; [19]
  Plant response rating, Redroot pigweed: 0
[6]; [20]
  Redroot pigweed plant response rating: 0
[6]; [22]
  Redroot pigweed plant response rating: 0
[6]; Rate 250 g/ha, Postemergence
  Plant response rating (0 to 10; 0 is no effect, 10 is complete control), Redroot pigweed: 3
[6]; [23]
  Redroot pigweed plant response rating: 7
[7]; [17]
  Soybean plant response rating: 0
[7]; [18]
  Soybean plant response rating: 0
[7]; [19]
  Plant response rating, Soybean: 0
[7]; [20]
  Soybean plant response rating: 1
[7]; [22]
  Soybean plant response rating: 0
[7]; [23]
  Soybean plant response rating: 3
[8]; [17]
  B. signalgrass plant response rating: 0
[8]; Preemergence, Rate 250 g/ha, scale 0 to 10, 0 is no effect, 10 is complete control
  B. signalgrass plant response rating: 4
[8]; [19]
  Plant response rating, B. signalgrass: 5
[8]; [20]
  B. signalgrass plant response rating: 0
[8]; Rate 125 g/ha, Postemergence, scale 0 (no effect) to 10 (complete control)
  B. signalgrass plant response rating: 0
[8]; [22]
  B. signalgrass plant response rating: 0
[8]; Rate 250 g/ha, Postemergence
  Plant response rating (0 to 10; 0 is no effect, 10 is complete control), B. signalgrass: 0
[8]; [23]
  B. signalgrass plant response rating: 0
[9]; [17]
  Velvetleaf plant response rating: 0
[9]; [18]
  Velvetleaf plant response rating: 2
[9]; [19]
  Plant response rating, Velvetleaf: 5
[9]; [20]
  Velvetleaf plant response rating: 0
[9]; [22]
  Velvetleaf plant response rating: 0
[9]; [23]
  Velvetleaf plant response rating: 3
[10]; [17]
  Corn plant response rating: 0
[10]; [18]
  Corn plant response rating: 0
[10]; [19]
  Plant response rating, Corn: 0
[10]; [20]
  Corn plant response rating: 0
[10]; [21]
  Corn plant response rating: 0
[10]; [22]
  Corn plant response rating: 0
[10]; Rate 250 g/ha, Postemergence
  Plant response rating (0 to 10; 0 is no effect, 10 is complete control), Corn: 0
[10]; [23]
  Corn plant response rating: 0
[11]; [24]
  Rice plant response rating: 0
[11]; [25]
  Rice plant response rating: 0
[11]; [26]
  Rice plant response rating: 0
[11]; [27]
  Rice plant response rating: 0
[12]; [17]
  Morningglory plant response rating: 0
[12]; [18]
  Morningglory plant response rating: 0
[12]; [19]
  Plant response rating, Morningglory: 0
[12]; [20]
  Morningglory plant response rating: 1
[12]; [22]
  Morningglory plant response rating: 0
[12]; Rate 250 g/ha, Postemergence
  Plant response rating (0 to 10; 0 is no effect, 10 is complete control), Morningglory: 3
[12]; [23]
  Morningglory plant response rating: 9
[13]; [17]
  Sugarbeets plant response rating: 0
[13]; [18]
  Sugarbeets plant response rating: 0
[13]; [19]
  Plant response rating, Sugarbeets: 0
[13]; [20]
  Sugarbeets plant response rating: 0
[13]; [22]
  Sugarbeets plant response rating: 0
[13]; [23]
  Sugarbeets plant response rating: 0
[14]; [17]
  Giant foxtail plant response rating: 4
[14]; [18]
  Giant foxtail plant response rating: 10
[14]; [19]
  Plant response rating, Giant foxtail: 10
[14]; [20]
  Giant foxtail plant response rating: 0
[14]; [22]
  Giant foxtail plant response rating: 10
[14]; Rate 250 g/ha, Postemergence
  Plant response rating (0 to 10; 0 is no effect, 10 is complete control), Giant foxtail: 1
[14]; [23]
  Giant foxtail plant response rating: 6
[15]; [24]
  S. Flatsedge plant response rating: 0
[15]; [25]
  S. Flatsedge plant response rating: 0
[15]; [26]
  S. Flatsedge plant response rating: 0
[15]; [27]
  S. Flatsedge plant response rating: 0
[16]; [17]
  Rape plant response rating: 0
[16]; [18]
  Rape plant response rating: 0
[16]; [19]
  Plant response rating, Rape: 0
[16]; [20]
  Rape plant response rating: 0
[16]; [22]
  Rape plant response rating: 0
[16]; Rate 250 g/ha, Postemergence
  Plant response rating (0 to 10; 0 is no effect, 10 is complete control), Rape: 0
[16]; [23]
  Rape plant response rating: 0
